Laboratory results reported in ChEMBL document CHEMBL3421625, “Discovery and optimization of novel antagonists to the human neurokinin-3 receptor for the treatment of sex-hormone disorders (Part I)” (J Med Chem, 2015).
Values after ≈ are worked out from the molar mass of the structure shown.

Key:
Neuromedin-K receptor [1] = biological target: T1, Neuromedin-K receptor (Homo sapiens, UniProt P29371); experiment: biochemical
T1 sequence (P29371 whole entry): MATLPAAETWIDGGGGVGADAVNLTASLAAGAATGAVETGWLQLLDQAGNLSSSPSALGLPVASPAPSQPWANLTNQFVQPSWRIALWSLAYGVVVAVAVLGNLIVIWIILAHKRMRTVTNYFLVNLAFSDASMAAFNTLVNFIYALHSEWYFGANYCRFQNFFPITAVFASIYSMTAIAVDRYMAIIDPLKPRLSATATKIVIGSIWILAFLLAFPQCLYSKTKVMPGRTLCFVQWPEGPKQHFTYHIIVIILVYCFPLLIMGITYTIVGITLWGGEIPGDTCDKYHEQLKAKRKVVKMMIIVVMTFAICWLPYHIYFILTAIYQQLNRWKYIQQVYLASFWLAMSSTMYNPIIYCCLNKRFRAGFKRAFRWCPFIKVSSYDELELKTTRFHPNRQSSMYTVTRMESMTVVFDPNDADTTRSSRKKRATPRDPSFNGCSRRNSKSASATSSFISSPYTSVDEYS
Description: Displacement of [3H]-SB222200 from recombinant human NK3R expressed in CHO cell membranes after 90 mins by scintillation counting analysis

Neuromedin-K receptor [2] = biological target: T1, Neuromedin-K receptor
[3] = Solubility of the compound in PBS buffer at pH 7.4 by shake-flask method; format: physicochemical
Cytochrome P450 2C9 = Cytochrome P450 2C9 (Homo sapiens, UniProt P11712); experiment: Inhibition of CYP2C9 (unknown origin) by luciferase reporter assay in presence of NADPH regeneration system; format: ADME
Sequence of Cytochrome P450 2C9 (P11712 whole entry): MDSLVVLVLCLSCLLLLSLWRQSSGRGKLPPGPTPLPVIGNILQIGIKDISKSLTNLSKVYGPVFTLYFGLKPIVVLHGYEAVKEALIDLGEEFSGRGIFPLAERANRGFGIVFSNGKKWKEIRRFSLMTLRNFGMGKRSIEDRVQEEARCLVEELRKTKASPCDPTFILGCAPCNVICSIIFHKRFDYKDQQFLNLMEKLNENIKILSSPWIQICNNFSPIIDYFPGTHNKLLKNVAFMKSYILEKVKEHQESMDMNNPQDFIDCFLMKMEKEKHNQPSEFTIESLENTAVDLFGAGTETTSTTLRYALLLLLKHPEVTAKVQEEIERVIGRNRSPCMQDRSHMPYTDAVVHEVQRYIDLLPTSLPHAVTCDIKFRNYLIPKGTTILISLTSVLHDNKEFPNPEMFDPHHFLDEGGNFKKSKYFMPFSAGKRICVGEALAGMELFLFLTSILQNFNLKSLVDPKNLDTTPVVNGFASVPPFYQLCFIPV

[4] = Lipophilicity, log D of the compound at pH 7.4; format: physicochemical; details: buffer, read-out: logD
Cytochrome P450 2D6 = Cytochrome P450 2D6 (Homo sapiens, UniProt P10635); experiment: Inhibition of CYP2D6 (unknown origin) by luciferase reporter assay in presence of NADPH regeneration system; format: ADME
Sequence of Cytochrome P450 2D6 (P10635 whole entry): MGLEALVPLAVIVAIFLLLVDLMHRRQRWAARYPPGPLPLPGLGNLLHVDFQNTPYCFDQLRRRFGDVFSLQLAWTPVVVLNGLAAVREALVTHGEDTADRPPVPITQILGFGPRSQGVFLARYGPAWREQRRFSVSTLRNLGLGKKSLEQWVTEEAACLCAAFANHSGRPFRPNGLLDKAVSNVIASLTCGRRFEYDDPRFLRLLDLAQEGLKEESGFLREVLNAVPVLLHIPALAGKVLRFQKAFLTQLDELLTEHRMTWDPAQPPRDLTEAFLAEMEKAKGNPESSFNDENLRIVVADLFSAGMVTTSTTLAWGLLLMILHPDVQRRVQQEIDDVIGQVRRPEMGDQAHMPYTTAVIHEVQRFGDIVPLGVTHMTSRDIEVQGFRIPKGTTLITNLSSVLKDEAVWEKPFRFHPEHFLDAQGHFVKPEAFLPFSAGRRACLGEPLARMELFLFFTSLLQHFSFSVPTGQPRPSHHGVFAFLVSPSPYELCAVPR

Cytochrome P450 2C19 = Cytochrome P450 2C19 (Homo sapiens, UniProt P33261); experiment: Inhibition of CYP2C19 (unknown origin) by luciferase reporter assay in presence of NADPH regeneration system
Sequence of Cytochrome P450 2C19 (P33261 whole entry): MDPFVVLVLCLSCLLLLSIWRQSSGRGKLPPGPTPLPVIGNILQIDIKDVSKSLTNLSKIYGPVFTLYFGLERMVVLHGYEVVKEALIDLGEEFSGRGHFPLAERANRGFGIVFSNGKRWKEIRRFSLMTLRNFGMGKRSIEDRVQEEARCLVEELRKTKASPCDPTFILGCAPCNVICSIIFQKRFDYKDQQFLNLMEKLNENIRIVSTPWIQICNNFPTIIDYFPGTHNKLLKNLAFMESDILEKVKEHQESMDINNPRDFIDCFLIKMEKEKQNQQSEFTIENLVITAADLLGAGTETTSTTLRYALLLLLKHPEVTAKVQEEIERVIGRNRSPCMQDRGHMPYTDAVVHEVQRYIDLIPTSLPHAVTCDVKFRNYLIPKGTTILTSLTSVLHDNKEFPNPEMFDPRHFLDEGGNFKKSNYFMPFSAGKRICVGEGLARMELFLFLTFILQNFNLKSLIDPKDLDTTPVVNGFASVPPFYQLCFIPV

Cytochrome P450 3A4 = Cytochrome P450 3A4 (Homo sapiens, UniProt P08684); experiment: Inhibition of CYP3A4 (unknown origin) by luciferase reporter assay in presence of NADPH regeneration system; format: ADME
Sequence of Cytochrome P450 3A4 (P08684 whole entry): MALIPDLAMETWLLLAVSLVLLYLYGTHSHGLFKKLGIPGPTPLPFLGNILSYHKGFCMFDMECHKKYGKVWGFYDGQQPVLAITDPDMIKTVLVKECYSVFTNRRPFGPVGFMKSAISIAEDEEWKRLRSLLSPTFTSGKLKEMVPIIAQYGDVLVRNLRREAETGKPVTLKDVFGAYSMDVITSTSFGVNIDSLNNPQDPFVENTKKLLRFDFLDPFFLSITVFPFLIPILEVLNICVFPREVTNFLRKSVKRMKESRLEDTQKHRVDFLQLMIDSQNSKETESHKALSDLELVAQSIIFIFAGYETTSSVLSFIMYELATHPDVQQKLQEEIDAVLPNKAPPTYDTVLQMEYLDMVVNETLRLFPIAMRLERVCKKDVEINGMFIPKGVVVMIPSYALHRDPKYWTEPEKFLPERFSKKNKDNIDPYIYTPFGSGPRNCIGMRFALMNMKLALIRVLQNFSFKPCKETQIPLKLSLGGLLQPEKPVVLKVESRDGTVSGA

Cytochrome P450 1A2 = biological target: T2, Cytochrome P450 1A2 (Homo sapiens, UniProt P05177); experiment: Inhibition of CYP1A2 (unknown origin) by luciferase reporter assay in presence of NADPH regeneration system; format: ADME
T2 sequence (P05177 whole entry): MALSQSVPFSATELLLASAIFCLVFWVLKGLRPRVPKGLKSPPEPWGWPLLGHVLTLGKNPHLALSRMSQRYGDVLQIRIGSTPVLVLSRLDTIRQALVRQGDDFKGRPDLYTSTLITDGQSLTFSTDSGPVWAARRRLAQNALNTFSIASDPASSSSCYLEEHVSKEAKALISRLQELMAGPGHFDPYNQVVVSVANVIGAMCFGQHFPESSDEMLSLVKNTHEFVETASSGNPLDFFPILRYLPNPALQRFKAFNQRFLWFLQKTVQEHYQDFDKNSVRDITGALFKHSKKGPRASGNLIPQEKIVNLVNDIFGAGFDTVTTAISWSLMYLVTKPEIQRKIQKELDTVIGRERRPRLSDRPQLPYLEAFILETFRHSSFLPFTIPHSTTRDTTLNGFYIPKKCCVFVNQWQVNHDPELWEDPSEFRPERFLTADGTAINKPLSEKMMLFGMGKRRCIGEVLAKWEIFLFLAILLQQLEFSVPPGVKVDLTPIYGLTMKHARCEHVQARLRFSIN

Structure (SMILES)	Ki (Neuromedin-K receptor [1])	IC50 (Neuromedin-K receptor [2])	solubility thermodynamic [3]	IC50 (Cytochrome P450 2C9)	logD [4]	IC50 (Cytochrome P450 2D6)	IC50 (Cytochrome P450 2C19)	IC50 (Cytochrome P450 3A4)	IC50 (Cytochrome P450 1A2)
C[C@H]1c2nnc(-c3ccccn3)n2CCN1C(=O)c1ccc(F)cc1	7.94 µM	7.94 µM	≥ 200 µM						
CC(C)c1nc(-c2nnc3n2CCN(C(=O)c2ccc(-c4cccs4)cc2)[C@@H]3C)cs1	0.00251 µM	0.00398 µM	25 µM (≈ 11.2 µg/mL)	4 µM	4.4	27 µM	12 µM	35 µM	17 µM
O=C(c1ccc(-c2ccccc2)cc1)N1CCn2c(nnc2-c2ccccn2)C1	1.26 µM	1.58 µM	28 µM (≈ 10.7 µg/mL)						
O=C(c1ccc(-c2cccs2)cc1)N1CCn2c(nnc2-c2ccccn2)C1	0.501 µM	0.631 µM	12 µM (≈ 4.65 µg/mL)						
O=C(c1cccc(F)c1)N1CCn2c(nnc2-c2ccccn2)C1	5.01 µM	6.31 µM	199 µM (≈ 64.3 µg/mL)						
COc1cccc(C(=O)N2CCn3c(nnc3-c3ccccn3)C2)c1	> 31.6 µM	> 31.6 µM	196 µM (≈ 65.7 µg/mL)						
C[C@@H]1c2nnc(-c3ccccn3)n2CCN1C(=O)c1ccc(F)cc1	0.794 µM	0.794 µM	≥ 200 µM						
O=C(c1ccc(F)cc1)N1CCn2c(nnc2-c2cccc(C(F)(F)F)n2)C1	0.398 µM	0.398 µM	193 µM (≈ 75.5 µg/mL)	> 100 µM		> 100 µM	> 100 µM	> 100 µM	21 µM
O=C(c1ccc(Cc2ccccc2)cc1)N1CCn2c(nnc2-c2ccccn2)C1	> 31.6 µM	> 31.6 µM	169 µM (≈ 66.8 µg/mL)						
Cc1ccc(-c2ccc(C(=O)N3CCn4c(nnc4-c4ccccn4)C3)cc2)o1	15.8 µM	10 µM	71 µM (≈ 27.4 µg/mL)						
O=C(c1ccccc1F)N1CCn2c(nnc2-c2ccccn2)C1	> 31.6 µM	> 31.6 µM	≥ 200 µM						
O=C(c1ccc(-c2ccc(Cl)cc2)cc1)N1CCn2c(nnc2-c2ccccn2)C1	5.01 µM	3.98 µM	5.3 µM (≈ 2.2 µg/mL)						
O=C(c1ccc(-c2ccc(F)cc2)cc1)N1CCn2c(nnc2-c2ccccn2)C1	2 µM	1.58 µM	10 µM (≈ 3.99 µg/mL)						
COc1ccccc1C(=O)N1CCn2c(nnc2-c2ccccn2)C1	> 31.6 µM	> 31.6 µM	≥ 200 µM						
Cc1cccc(-c2nnc3n2CCN(C(=O)c2ccc(F)cc2)C3)n1	0.501 µM	0.501 µM	≥ 200 µM	> 100 µM	1.4	> 100 µM	48 µM	> 100 µM	69 µM
Cc1ccc(-c2nnc3n2CCN(C(=O)c2ccc(F)cc2)C3)nc1	1.58 µM	2.51 µM	≥ 200 µM						
Cc1cccc(-c2nnc3n2CCN(C(=O)c2ccc(-c4cccs4)cc2)[C@@H]3C)n1		0.01 µM	110 µM (≈ 45.7 µg/mL)	18 µM	3.4	86 µM	26 µM	45 µM	57 µM
COc1ccc(C(=O)N2CCn3c(nnc3-c3ccccn3)C2)cc1	> 31.6 µM	> 31.6 µM	194 µM (≈ 65.1 µg/mL)						
Cc1csc(-c2nnc3n2CCN(C(=O)c2ccc(-c4cccs4)cc2)[C@@H]3C)n1	0.00631 µM		50 µM (≈ 21.1 µg/mL)	8 µM	2.9	42 µM	18 µM	11 µM	8 µM
Cc1nc(-c2nnc3n2CCN(C(=O)c2ccc(-c4cccs4)cc2)[C@H]3C)cs1					3.1				
C[C@@H]1c2nnc(-c3csc(-c4ccccc4)n3)n2CCN1C(=O)c1ccc(F)cc1	0.0251 µM	0.0158 µM	179 µM (≈ 75.1 µg/mL)	19 µM	3.4	54 µM	19 µM	67 µM	25 µM
Cc1cncc(-c2nnc3n2CCN(C(=O)c2ccc(-c4cccs4)cc2)[C@@H]3C)n1	0.0126 µM	0.02 µM	160 µM (≈ 66.6 µg/mL)	17 µM	2.7	> 100 µM	39 µM	2 µM	50 µM
Cc1nc(-c2nnc3n2CCN(C(=O)c2ccc(F)cc2)[C@@H]3C)cs1			≥ 200 µM	56 µM	1.3	> 100 µM	44 µM	63 µM	> 100 µM
Cc1ccnc(-c2nnc3n2CCN(C(=O)c2ccc(F)cc2)C3)c1	6.31 µM	6.31 µM	≥ 200 µM						
C[C@@H]1c2nnc(-c3csc(C(F)(F)F)n3)n2CCN1C(=O)c1ccc(-c2cccs2)cc1	0.0794 µM	0.0631 µM	11 µM (≈ 5.23 µg/mL)	5 µM	4.1	> 100 µM	18 µM	> 100 µM	8 µM
Cc1cccnc1-c1nnc2n1CCN(C(=O)c1ccc(F)cc1)C2	> 31.6 µM	> 31.6 µM	≥ 200 µM						
COc1ccc(-c2ccc(C(=O)N3CCn4c(nnc4-c4ccccn4)C3)cc2)cc1	> 31.6 µM	> 31.6 µM	6.4 µM (≈ 2.63 µg/mL)						
O=C(c1cc(-c2ccc(Cl)cc2)n[nH]1)N1CCn2c(nnc2-c2ccccn2)C1	1.58 µM	1.58 µM	1.4 µM (≈ 0.568 µg/mL)						
Cc1cccc(-c2nnc3n2CCN(C(=O)c2ccc(F)cc2)[C@@H]3C)n1	0.0631 µM	0.0794 µM	197 µM (≈ 69.2 µg/mL)		1.6				
